What follows are compounds tested against T1, CAMKK2-KD (kinase domain of CAMKK2) (Homo sapiens, UniProt Q96RR4) (assay: isothermal titration calorimetry). Conditions: not given.
Type: binding

T1 sequence (Q96RR4 161-449): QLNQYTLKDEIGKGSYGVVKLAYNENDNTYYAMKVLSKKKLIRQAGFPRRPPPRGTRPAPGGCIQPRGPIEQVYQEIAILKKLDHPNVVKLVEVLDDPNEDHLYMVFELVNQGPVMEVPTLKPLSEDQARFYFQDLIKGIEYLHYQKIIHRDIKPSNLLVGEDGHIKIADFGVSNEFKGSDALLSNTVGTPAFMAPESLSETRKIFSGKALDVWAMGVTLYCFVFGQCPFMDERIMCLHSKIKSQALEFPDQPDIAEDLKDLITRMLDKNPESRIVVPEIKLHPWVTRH

Kd | Compound
8.1 nM | CC[C@@H]1C(=O)N(C)c2cnc(Nc3ccc(C(=O)N[C@H]4CC[C@H](N5CCN(CC6CC6)CC5)CC4)cc3OC)nc2N1C(C)C [BI 6727]
5.8 nM | COc1cc(N2CCC(N(C)C)CC2)ccc1Nc1ncc(Cl)c(Nc2ccccc2P(C)(C)=O)n1 [ALK-IN-1]

What follows are compounds tested against T1, CAMKK2-KD (kinase domain of CAMKK2) (assay: biochemical). Conditions: read-out: ΔTm (°C) 96-well.

ΔTm at 12 µM | Compound
9.4 °C | Cn1cc(/C=C2\C(=O)Nc3ccc(S(N)(=O)=O)cc32)c2ccccc21 [Syk Inhibitor]
7.5 °C | c1ccc(-c2cnc(Nc3ccc(OCCN4CCCC4)cc3)s2)cc1 [Flt3 Inhibitor III]
4.7 °C | CC(C)(C)c1nc2c3cc[nH]c(=O)c3c3cc(F)ccc3c2[nH]1 [JAK Inhibitor I]
4.1 °C | COc1cc2c(Nc3cc(Cl)c(OC)c(Cl)c3)c(C#N)cnc2cc1OCCCN1CCN(C)CC1 [Bosutinib isomer]

From doi:10.1101/538157v1 (biorxiv, 2019)
